As a reminder, the LD50 is the dose expected to kill half of the subjects tested. Lower therefore signals greater toxicity.

In data set [1] the test system is parkinson's disease, freezing phenomenon. Description: Clinical tests 1 to 7: treatment of parkinsonian patients with DL-threo-DOPS and a decarboxylase inhibitor. In kind it is in vivo, human. The protocol:
The patient was a person suffering from parkinson's disease, having a disease history of 12 years after being affected by the disease. The primary clinical features were moderate rigidity of the four limbs and trunk were slight tremor. At about 6 years after the start of the disease, L-DOPA therapy was started.
[…] The patient also had difficulty in writing.
This patient was then treated with DL-threo-DOPS in the following dosage, while keeping the administration of L-DOPA, the decarboxylase inhibitor (benserazide hydrochloride) and trihexyphenidyl hydrochloride at strictly the same dosage throughout the period of trial.
DL-threo-DOPS was orally administered to the patient in the form of a capsule (DL-DOPS content: 200 mg) as follows:
First to 2nd day 6 capsules per day
3rd to 4th day 9 capsules per day
5th to 6th day 12 capsules per day
It is noted that the decarboxylase inhibitor was not newly administered, because it was already administered together with L-DOPA.
The patient was a person suffering from parkinson's disease, whose main syndrome was "pure akinesia" which was first described by one of the present inventors [Narabayashi et al, Advances in Parkinsonism (eds., W. Birkmayer and O. Hornykiewicz) Roche Basle, pages 335-342 (1976)].
But on the other hand, motion such as going up or down the stairs could be done rather normally. Accordingly, such a syndrome is also called paradoxical kinesia.
The patient was treated with DL-threo-DOPS and a decarboxylase inhibitor (carbidopa) in the same dosage as in the above Clinical Test 1.
In the same manner, other patients as shown in Table 1 were treated with threo-DOPS and a decarboxylase inhibitor. The results are shown in Table 1 together with the data in the above Clinical Tests 1 and 2.

For data set [2], the system named is parkinson's disease. As to the kind of experiment: Speed of response (transit time between two switches), patient of Clinical Test 6. The settings on record: Clinical Test 6 patient. It is filed as in vivo, human. The protocol:
The abscissa axis represents time (hour) after administration, and the ordinate axis means transit time (msec). The filled squares represent the transit time after DL-threo-DOPS intake and the open squares on the right side represent the transit time 2 hours after administation of L-DOPA, benserazid hydrochloride and trihexyphenidyl hydrochloride.
In order to quantitatively analyze the improvement of the syndromes in the above clinical tests, a speed of response was measured as to some patients in the tests.
Method for the measurement: The transit time was measured by using two switches (distance: 15 cm) in the same manner as described in Masao Kato and Kazuya Ando, "Parkinson's Disease, Physiopathology and Therapy", page 106, issued by Kanehara Shuppan on Mar. 31, 1978.
Results: The data of the patient in the above Clinical Test 6 are shown in the attached FIG. 1. As is shown in the figure, when it was measured before administration of DL-threo-DOPS (600 mg) and carbidopa (60 mg) and 1, 3, 4, 6 and 8 hours after the administration, the effect peaked at 4 hours after administration, and at the same time, the transit time was shortened about 170 msec as compared to that before administration of the drugs.

Data set [3] deals with parkinson's disease. Description: Surface electromyogram, patient of Clinical Test 6. In kind it is in vivo, human. The settings on record: DL-threo-DOPS 600 mg and carbidopa 60 mg, vs before administration. The protocol: FIGS. 2, 3 and 4 each show surface electromyograms after DL-threo-DOPS and carbidopa were administered in comparison with the surface electromygrams before administration of the drugs. The data of FIG. 2 relate to a tremor of the right upper arm at static state. The data of FIG. 3 relate to tonic stretch reflexes of the extensor muscle of right forearm. The data of FIG. 4 indicate improvement of the skillfulness when flexion and extension movement at the right wrist joint was tried. […] E in FIG. 3 represents the period of passive stretching.
As to the patient in the above Clinical Test 6, the effect of administration of DL-threo-DOPS (600 mg) and carbidopa (60 mg) was measured by surface electromyogram, which was compared with that measured before the administration of drugs.

A further data set relates to decarboxylase. The settings on record: DL-threo-DOPS vs DL-erythro-DOPS; printed as "1/10 smaller"; cited from earlier work.
For data set [4], the system named is parkinson's disease. The settings on record: human, 300 mg intravenous; cited from earlier work.
Another data set deals with narcolepsy. The settings on record: six patients, 200 mg intravenous; cited from earlier work.
Data set [5] in a line: Side effects in the clinical tests. It is filed as in vivo, human.
A short description of data set [6]: acute toxicity (LD50) in mice. The settings on record: mouse, in vivo.
The subject of data set [7] is L-aromatic amino acid decarboxylase. The settings on record: cited from earlier work; for enzymatic decarboxylation of the stereoisomers: L- and D-, threo- and erythro-isomers; for nature of the norepinephrine formed: product of decarboxylation.
A further data set deals with brain norepinephrine. The settings on record: rats, cited from earlier work.
In the next data set the test system is heart norepinephrine. The settings on record: rats, combination with decarboxylase inhibitor; cited from earlier work.
Where [8] appears, read: Clinical Test 1, 3rd day, with L-DOPA, benserazide, trihexyphenidyl.
The mark [9] stands for this setting: Clinical Test 1, 5th day, with L-DOPA, benserazide, trihexyphenidyl.

Structures are written as SMILES. Where two headings read alike, the source gives them in different places. Some results are limits rather than exact numbers.

In the case of `N[C@H](C(=O)O)[C@H](O)c1ccc(O)c(O)c1` (relative stereo) [DL-threo-DOPS], in data set [1] (setting [8]), the behavior and expression entry is “more active behavior and expression”; the difficulty in writing result is reported as “the difficulty in writing had disappeared”; the speaking result is on record as “speaking more clearly than before”; the walking result is recorded as “much easier”. Further, in data set [1] (setting [9]), the “falling down during walking” value was “no falling down during walking within rooms and passageways”; the walking result was “could walk smoothly without any assistance and the steps of the walk became almost normal with wide steps”. Moreover, in [1] (Clinical Test 1, reduced dose of 9 capsules per day), the “improvement of the syndrome on maintenance” value is on record as “the improvement of the syndrome is still continuing”. The “walking and freezing in walking” value in data set [1] (Clinical Test 2, DL-threo-DOPS 1,800 mg and carbidopa 90 mg) was “the walking was improved and the freezing in walking disappeared”. Also, in data set [1] (Clinical Test 2, several days after reaching DL-threo-DOPS 1,800 mg and carbidopa 90 mg), the walking entry is reported as “the walking became almost normal”. Further, the “shortening of transit time compared to before administration” value in the data set on parkinson's disease [2] (4 hours after DL-threo-DOPS 600 mg and carbidopa 60 mg) was “about 170 msec”. In addition, the “time of peak effect on transit time after administration” value in the data set on parkinson's disease [2] (DL-threo-DOPS 600 mg and carbidopa 60 mg) is 4 h. For the same compound, the “transit time compared with L-DOPA combination” value in the data set with parkinson's disease [2] (vs 2 hours after L-DOPA 100 mg, benserazide 25 mg, trihexyphenidyl hydrochloride 2 mg) is given as “shorter than the transit time measured at 2 hours after administration of L-DOPA”. Also, the “tremor of the right upper arm at the static state” value in the data set on parkinson's disease [3] (FIG. 2) was “remarkably decreased or improved”. In the data set with parkinson's disease [3] (FIG. 3), the “rigidity (stiffness) of the extensor muscle of the right forearm” value is “remarkably decreased and improved”; the “tonic stretch reflex of the extensor muscle of the right forearm” value is “reduced”. Further, in the data set on parkinson's disease [3] (FIG. 4), the “skillfulness, flexion and extension movement at the right wrist joint” value is “remarkably improved”. Further, in the data set on decarboxylase, the “rate of decarboxylation relative to DL-erythro-DOPS” value was 1/10. Moreover, the “effect on parkinson's disease” value in the data set on parkinson's disease [4] was “ineffective”. For the same compound, the effect on narcolepsy result with narcolepsy is listed as “ineffective”.
Regarding `N[C@H](C(=O)O)[C@H](O)c1ccc(O)c(O)c1` (relative stereo) [threo-DOPS, threo-3,4-dihydroxyphenylserine], in [5], the serious side effects result was “serious side effects were not observed”. The LD50 in [6] (ip) was ~10000 mg/kg; in data set [6] (po), > 10000 mg/kg.
On to `NC(C(=O)O)C(O)c1ccc(O)c(O)c1` (centres unmarked) [DOPS], for which the decarboxylation to norepinephrine entry in [7] (in vivo and in vitro) was “can be decarboxylated”.
With `N[C@@H](Cc1ccc(O)c(O)c1)C(=O)O` [L-DOPA, L-3,4-dihydroxyphenylalanine, reference compound], the stiffness and tremor entry is “the stiffness and tremor were improved” in data set [1] (Clinical Test 1 patient, earlier L-DOPA 400 mg, benserazide 100 mg, trihexyphenidyl 6 mg daily, oral); “improved the stiffness and tremor remarkably” in data set [1] (Clinical Test 1 patient, earlier L-DOPA therapy). In data set [1] (Clinical Test 1 patient, increased amount of L-DOPA), the freezing entry is reported as “it became worse”.
On to `N[C@H](C(=O)O)[C@@H](O)c1ccc(O)c(O)c1` [L-erythro-DOPS, reference compound], for which, in data set [7], the “enzymatic decarboxylation of the stereoisomers” value is listed as “can be decarboxylated” and the “nature of the norepinephrine formed” value is “not natural”.
As to `N[C@H](C(=O)O)[C@H](O)c1ccc(O)c(O)c1` [L-threo-DOPS], in data set [7], the “enzymatic decarboxylation of the stereoisomers” value is listed as “can be decarboxylated” and the “nature of the norepinephrine formed” value is “confirmed as natural l-norepinephrine”. Moreover, in the data set with brain norepinephrine (combination with decarboxylase inhibitor), the “DOPS-induced rise of norepinephrine in the brain” value was “did not enhance”. Moreover, the “accumulation of norepinephrine in the brain” value in the data set with brain norepinephrine (injection into a cerebral ventricle) is “remarkable”. Further, the “accumulation of norepinephrine in the brain” value in the data set with brain norepinephrine (intraperitoneal administration) is on record as “negligible”. Further, the “penetration through B.B.B.” value in the data set on brain norepinephrine was “poor penetration”. In the data set with heart norepinephrine, the “DOPS-induced rise of norepinephrine in the heart” value is recorded as “abolished”.

These data come from patent publication US4497826A, “Antiparkinsonian agent” (priority 1981, dated 1985).
